pEC50: −log10 of the molar value.
System: primary human tonsillar lymphocytes
Assay: Toxicity in primary human tonsillar lymphocytes at 72 hours
Type: cell-based
Conditions: Lymphocyte, read-out: EC50 toxicity

SMILES | pEC50
CC(C)(C)c1cnc(CSc2cnc(NC(=O)C3CCNCC3)s2)o1 [SNS-032] | ~6.82
CC(C)(C)c1cnc(CSc2cnc(NC(=O)C3CCN(CC(=O)NCCOCCOCCOCCNc4cccc5c4C(=O)N(C4CCC(=O)NC4=O)C5=O)CC3)s2)o1 (centres unmarked) [THAL-SNS-032] | ~7.82

Source: article PMC11629774 (Science (New York, N.Y.), 2024)
